Test results from US20190110971A1, “COMPOSITIONS FOR MANAGING PLAQUE FORMATION” (THE REGENTS OF THE UNIVERSITY OF CALIFORNIA, priority 2016, published 2019).

test system: bracket-induced plaque formation (saliva-derived plaques on HA discs with brackets); assay: in vitro bracket-induced biofilm model system, crystal violet assay; type: cell-based; conditions: in vitro grown plaques from pooled human saliva, FIG. 5B/5C
Description: These discs were then fitted into 12-well tissue culture plates for the growth of saliva-derived plaques. One unique feature of this system is use of a new culture medium developed by this laboratory (Shi-medium, Tian Y 2010) which allows the biofilm grown in vitro to be very similar to in vivo human plaque.
A mixed pool of human saliva samples was collected from 10 volunteers to develop in vitro grown plaques on the model system developed above. Amino acids and sugar monomers and analogs were selected mostly from the list of FDA Generally Recognized As Safe (GRAS) compounds (http://www.fda.gov/Food/Ingredients PackagingLabeling/GRAS/SCOGS/ default.htm). The anti-biofilm inhibitory function of these chemicals was assayed with a crystal violet assay (Sharma A 2005), as illustrated in FIG. 5A. The compounds with more than 10× inhibitory effects were further investigated.

Row | Compound | inhibitory effects against bracket-induced plaque formation
1 | NCCCC[C@H](N)C(=O)O [L-Lys, L-lysine] | strong inhibitory effects
2 | C[C@H](O)[C@@H](N)C(=O)O [D-Thr, D-threonine] | strong inhibitory effects
3 | NCCCC[C@@H](N)C(=O)O [D-Lys, D-lysine] | strong inhibitory effects
4 | CC(=O)N[C@H]1C(O)O[C@H](CO)[C@@H](O)[C@@H]1O (stereo partly drawn) [N-acyl-Glucosamine, N-acetylglucosamine] | strong inhibitory effects
5 | C[C@@H](N)C(=O)O [D-Ala, D-alanine] | strong inhibitory effects
6 | N=C(N)NCCC[C@H](N)C(=O)O [L-Arg, L-arginine] | strong inhibitory effects
